System: IEC-6 cells
Experiment: Wounding assay: migration of IEC-6 cells after mechanical wounding (96-well plate)
Type: cell-based, rat
Protocol: After incubation in 10% FBS supplemented DMEM for 24 hours, the cells are starved in serum-free medium for another 24 hours. […] A cell denuded area is created by scratching the cell monolayer with the eight-channel mechanical wounder fitted with p-10 pipette tips (Axygen, T-300). To ensure even contact between the tips and the bottom of the well, the pins are calibrated by adjusting the hex screw with a hex wrench. With the help of the guiding-bar, the wounder is fixed onto the 96-well plate where each channel (pipette tip) is positioned at the same level in the eight wells of the same column. During wounding, the cell monolayer is scratched by moving the wounder from the left inner edge to the right inner edge of the wells where a sharp wound is formed along the diameter of each well. The wounding procedure is then repeated for all columns of a 96-well plate.
Photomicrographs of wounds are taken at time zero (501, 503, 505), 16 hours (511, 513, 515) and 24 hours (521, 523, 525) after wounding. Images at time zero are taken to record the initial width of the wounds and the recovery of the wounded monolayers due to cell migration towards the denuded area can be evaluated at 16 and 24 hours. The images are captured using an inverted phase-contract microscope such as a TMS Nikon with 4× objective, and the width of wound can quantified by the software such as Motic image plus 2.0 software of Motic Instruments. The migration of cells towards the wounds is expressed as a percentage of wound closure where % of wound closure=[(Wt=0−Wt=16 or 24)/Wt=0]×100% where Wt=0 is the width of wound measured immediately after scratching and Wt=16 or 24 is the width of wound measured 16 hours or 24 hours after scratching.

Compound | percentage of wound closure (16 hours after wounding, 5 mM DFMO in serum-free medium (control about 60%)) [%] | percentage of wound closure (24 hours after wounding, 5 mM DFMO in serum-free medium (control 76%)) | percentage of wound closure (24 hours after wounding, 20 ng/ml EGF in serum-free medium (control 76%)) [%]
NCCC[C@](N)(C(=O)O)C(F)F [DFMO, alpha-difluoromethylornithine] | 33 | around 50% | –
epithelial growth factor (NSDSECPLSHDGYCLHDGVCMYIEALDKYACNCVVGYIGERCQYRDLKWWELR; Epidermal growth factor; UniProt P01133 971-1023, looked up) [EGF, cell migration enhancer, used as the inducer of cell migration] | – | – | ~100
